Experimental data published in patent US20170042849A1, “COMPOSITION FOR BRAIN IMPROVEMENT” (N.V. Nutricia, priority 2014, published 2017).

Experiments:
C3H/HeOuJ mice [1] = assay: Social interaction test in cow's milk allergy model mice and unsensitized mice; format: in vivo
Protocol: (§1) Pathogen-free, male C3H/HeOuJ mice (4 weeks old, Charles River Laboratories) mice were bred and raised on a cow's milk protein-free diet (Special Diet Services, Witham, UK) and housed on a 12 h light-dark cycle with access to food and water ad libitum. All animal procedures were conducted in accordance with the guidelines of the Dutch Committee of Animal Experiments. The mice were sensitized orally with 0.5 mL homogenized whey protein (40 mg/mL PBS) and cholera toxin (CT, 20 μg/mL PBS, Quadratech Diagnostics) as an adjuvant; sham-sensitized mice received CT alone. Mice were orally boosted once a week for 5 consecutive weeks. One week after the last sensitization, mice were challenged orally with 0.5 mL whey (100 mg/mL PBS). The mice were fed a control diet, or a diet supplemented with glutamine (5 wt %). At the end, the mice were subjected to social interaction and spatial memory tests. Cow's milk allergy is associated with disturbed social interaction and impaired spatial memory, and thus suited to study the effects of dietary intervention there. […] By using video tracking software (EthoVision 3.1.16, Noldus), an interaction zone around the cage was digitally determined. Time spent in the interaction zone as well as frequency of entering the interaction zone over the selected time period was measured. […]

C3H/HeOuJ mice [2] = assay: T maze spontaneous alternation spatial memory performance test; format: in vivo; settings: CMA sensitized mice
Protocol: as §1, with “The percentage of alternation (number of turns” for “By using video tracking software (EthoVision 3.1.16, Noldus), an interaction zone around the cage was digitally determined. Time spent”, “each goal arm) and total trial duration are recorded. This test is used to quantify cognitive deficits in transgenic strains” for “the interaction zone as well as frequency”, “mice and evaluate novel chemical entities for their effects on cognition.” for “entering the interaction zone over the selected time period was measured.”

NC(=O)CC[C@H](N)C(=O)O [glutamine, L-glutamine]
Time spent in interaction zone (C3H/HeOuJ mice [1]; CMA sensitized mice, diet supplemented with glutamine (5 wt %), mean +/- s.e.): 117 +/− 20.8 (n = 12) sec
Time spent in the interaction zone (C3H/HeOuJ mice [1]; unsensitized mice fed the Gln diet): 174 ± 19.1 s
% Alternation in spatial memory test (C3H/HeOuJ mice [2]; diet supplemented with glutamine (5 wt %), mean, s.e.): 66.7 +/− 6.4 (n = 12) %
Reduced alternation in the T-maze test vs control CMA-mice, in words (C3H/HeOuJ mice [2]; diet with supplementation of Gln): markedly improved
